# Laboratory results from paper PMC11677535, “Eremophilane- and Acorane-Type Sesquiterpenes from the Deep-Sea Cold-Seep-Derived Fungus Furcasterigmium furcatum CS-280 Cultured in the Presence of Autoclaved Pseudomonas aeruginosa QDIO-4” (Marine Drugs, 2024).
# Biological target: T1, COX-2 (cyclooxygenase-2) (Homo sapiens, UniProt P35354)
# T1 construct: gene PTGS2
# T1 sequence (P35354 18-604): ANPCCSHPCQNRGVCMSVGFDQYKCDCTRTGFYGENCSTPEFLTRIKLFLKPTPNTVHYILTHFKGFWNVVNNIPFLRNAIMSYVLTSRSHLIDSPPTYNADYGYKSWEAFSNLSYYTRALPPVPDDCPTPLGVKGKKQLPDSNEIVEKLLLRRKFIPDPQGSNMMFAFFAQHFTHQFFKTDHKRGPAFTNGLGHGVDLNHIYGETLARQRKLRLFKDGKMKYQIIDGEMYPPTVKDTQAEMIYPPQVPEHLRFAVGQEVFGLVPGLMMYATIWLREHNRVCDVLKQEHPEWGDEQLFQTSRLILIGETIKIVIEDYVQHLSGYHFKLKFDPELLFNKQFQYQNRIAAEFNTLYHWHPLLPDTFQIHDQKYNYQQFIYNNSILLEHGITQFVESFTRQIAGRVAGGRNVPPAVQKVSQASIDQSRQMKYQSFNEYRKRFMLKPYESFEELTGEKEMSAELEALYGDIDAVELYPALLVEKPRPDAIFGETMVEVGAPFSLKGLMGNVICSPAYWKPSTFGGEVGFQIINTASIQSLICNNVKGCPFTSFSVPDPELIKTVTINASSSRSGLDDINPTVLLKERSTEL
# Test: biochemical
row,Compound,IC50
1,"CC(=O)O[C@H]1[C@@H](O)C=C2C[C@@]3(O)OC[C@@]4(C)O[C@]43C[C@]2(C)[C@H]1C [compound 2, fureremophilane B]",123 µM
2,"CC(=O)O[C@H]1C=C2C[C@@]3(O)OC[C@@]4(C)O[C@]43C[C@]2(C)[C@@H](C)[C@H]1O [compound 3, fureremophilane C]",93.4 µM
